Experimental findings from ChEMBL document CHEMBL1142186, “Multistep resistance selection and postantibiotic-effect studies of the antipneumococcal activity of LBM415 compared to other agents” (2007) are described below.

In brackets after ≈: the same amount, converted by molar mass.

The test system of assay [1] is Streptococcus pneumoniae. Nature of the assay: Antibacterial activity against moxifloxacin resistance selected Streptococcus pneumoniae 3665 with GyrA S81Y mutation after 38 passages by macrodilution method. It counts as functional.
Assay [2] has as its system Streptococcus pneumoniae. Nature of the assay: Antibacterial activity against moxifloxacin resistance selected Streptococcus pneumoniae 3009 with GyrA S81F and ParC D83N mutation after 19 passages by macrodilution method. It counts as functional.
The subject of assay [3] is Streptococcus pneumoniae. Kind of assay: Antibacterial activity against moxifloxacin resistance selected Streptococcus pneumoniae 3676 with GyrA E85G, GyrB S478I and ParC S79Y mutation after 50 passages by macrodilution method. It counts as functional.
Assay [4] deals with Streptococcus pneumoniae. Nature of the assay: Antibacterial activity against moxifloxacin resistance selected Streptococcus pneumoniae 3243 after 20 passages by macrodilution method. It counts as functional.
The test system of assay [5] is Streptococcus pneumoniae. Nature of the assay: Antibacterial activity against moxifloxacin resistance selected Streptococcus pneumoniae 19 with GyrA S81F mutation after 32 passages by macrodilution method. It is filed as functional.
The test system of assay [6] is Streptococcus pneumoniae. Nature of the assay: Antibacterial activity against Streptococcus pneumoniae 1076 by macrodilution method. It is filed as functional.
Assay [7] has as its system Streptococcus pneumoniae. Kind of assay: Antibacterial activity against levofloxacin resistance selected Streptococcus pneumoniae 3009 with GyrA S81Y and ParC S79Y mutation after 10 antibiotic-free subcultures by macrodilution method. It counts as functional.
Assay [8] has as its system Streptococcus pneumoniae. Nature of the assay: microbe, parasite or virus in culture.
Assay [9] has as its system Streptococcus pneumoniae. Nature of the assay: Antibacterial activity against moxifloxacin resistance selected Streptococcus pneumoniae 1076 with ParC S79Y mutation after 35 passages by macrodilution method. It counts as functional.
In assay [10] the test system is Streptococcus pneumoniae. Kind of assay: Antibacterial activity against Streptococcus pneumoniae assessed as period of suppression of bacterial growth. It counts as functional.
Assay [11] relates to Streptococcus pneumoniae. Kind of assay: Antibacterial activity against moxifloxacin resistance selected Streptococcus pneumoniae 19 with GyrA S81F mutation after 10 antibiotic-free subcultures by macrodilution method. It is filed as functional.
Assay [12] concerns Streptococcus pneumoniae. Nature of the assay: Antibacterial activity against moxifloxacin resistance selected Streptococcus pneumoniae 3676 with GyrA E85G, GyrB S478I and ParC S79Y mutation after 10 antibiotic-free subcultures by macrodilution method. It is filed as functional.
The subject of assay [13] is Streptococcus pneumoniae. Nature of the assay: Antibacterial activity against gatifloxacin resistance selected Streptococcus pneumoniae 37 with GyrA S81Y, GyrB E474K and ParC S79Y mutation after 10 antibiotic-free subcultures by macrodilution method. It counts as functional.
Assay [14] relates to Streptococcus pneumoniae. Nature of the assay: Antibacterial activity against levofloxacin resistance selected Streptococcus pneumoniae 19 with GyrA S81Y and ParC D83Y mutation after 10 antibiotic-free subcultures by macrodilution method. It counts as functional.
In assay [15] the test system is Streptococcus pneumoniae. Kind of assay: Antibacterial activity against azithromycin resistance selected Streptococcus pneumoniae 2527 after 10 antibiotic-free subcultures by macrodilution method. It counts as functional.
The subject of assay [16] is Streptococcus pneumoniae. Nature of the assay: Antibacterial activity against moxifloxacin resistance selected Streptococcus pneumoniae 24 with GyrA S81Y, GyrB P413S and ParC S79F mutation after 10 antibiotic-free subcultures by macrodilution method. It counts as functional.
In assay [17] the test system is Streptococcus pneumoniae. Nature of the assay: Antibacterial activity against azithromycin resistance selected Streptococcus pneumoniae 3243 with L22 insertion 93SFRPRA94 mutation after 33 passages by macrodilution method. It is filed as functional.
Assay [18] relates to Streptococcus pneumoniae. Nature of the assay: Antibacterial activity against moxifloxacin resistance selected Streptococcus pneumoniae 1076 with ParC S79Y mutation after 10 antibiotic-free subcultures by macrodilution method. It counts as functional.
Assay [19] relates to Streptococcus pneumoniae. Nature of the assay: Antibacterial activity against azithromycin resistance selected Streptococcus pneumoniae 2527 after 20 passages by macrodilution method. It counts as functional.
Assay [20] concerns Streptococcus pneumoniae. Nature of the assay: Antibacterial activity against azithromycin resistance selected Streptococcus pneumoniae 1077 with 23S rRNA A2058G mutation after 29 passages by macrodilution method. It counts as functional.
Assay [21] concerns Streptococcus pneumoniae. Nature of the assay: Antibacterial activity against azithromycin resistance selected Streptococcus pneumoniae 1077 with 23S rRNA A2058G mutation after 10 antibiotic-free subcultures by macrodilution method. It counts as functional.
The test system of assay [22] is Streptococcus pneumoniae. Kind of assay: Antibacterial activity against Streptococcus pneumoniae 1077 by macrodilution method. It is filed as functional.
Assay [23] relates to Streptococcus pneumoniae. Kind of assay: Antibacterial activity against azithromycin resistance selected Streptococcus pneumoniae 3243 with L22 insertion 93SFRPRA94 mutation after 10 antibiotic-free subcultures by macrodilution method. It counts as functional.
Assay [24] has as its system Streptococcus pneumoniae. Kind of assay: Antibacterial activity against gatifloxacin resistance selected Streptococcus pneumoniae 3009 after 10 antibiotic-free subcultures by macrodilution method. It is filed as functional.
Assay [25] has as its system Streptococcus pneumoniae. Nature of the assay: Antibacterial activity against Streptococcus pneumoniae 3243 by macrodilution method. It is filed as functional.
In assay [26] the test system is Streptococcus pneumoniae. Nature of the assay: Antibacterial activity against moxifloxacin resistance selected Streptococcus pneumoniae 3009 with GyrA S81F and ParC D83N mutation after 10 antibiotic-free subcultures by macrodilution method. It is filed as functional.
For assay [27], the system named is Streptococcus pneumoniae. Kind of assay: Antibacterial activity against moxifloxacin resistance selected Streptococcus pneumoniae 3243 after 10 antibiotic-free subcultures by macrodilution method. It is filed as functional.
Assay [28] deals with Streptococcus pneumoniae. Nature of the assay: Antibacterial activity against clarithromycin resistance selected Streptococcus pneumoniae 3665 after 10 antibiotic-free subcultures by macrodilution method. It counts as functional.
Assay [29] concerns Streptococcus pneumoniae. Nature of the assay: Antibacterial activity against clarithromycin resistance selected Streptococcus pneumoniae 3009 after 10 antibiotic-free subcultures by macrodilution method. It is filed as functional.
Assay [30] has as its system Streptococcus pneumoniae. Nature of the assay: Antibacterial activity against moxifloxacin resistance selected Streptococcus pneumoniae 3665 with GyrA S81Y mutation after 10 antibiotic-free subcultures by macrodilution method. It is filed as functional.
The subject of assay [31] is Streptococcus pneumoniae. Nature of the assay: Antibacterial activity against gatifloxacin resistance selected Streptococcus pneumoniae 1076 with ParC S79Y mutation after 10 antibiotic-free subcultures by macrodilution method. It counts as functional.
Assay [32] deals with Streptococcus pneumoniae. Kind of assay: Antibacterial activity against clarithromycin resistance selected Streptococcus pneumoniae 3243 with 23S rRNA A2059T mutation after 10 antibiotic-free subcultures by macrodilution method. It counts as functional.
Assay [33] relates to Streptococcus pneumoniae. Nature of the assay: Antibacterial activity against Streptococcus pneumoniae 2527 by macrodilution method. It counts as functional.
For assay [34], the system named is Streptococcus pneumoniae. Kind of assay: Antibacterial activity against clarithromycin resistance selected Streptococcus pneumoniae 3676 after 10 antibiotic-free subcultures by macrodilution method. It counts as functional.
Assay [35] relates to Streptococcus pneumoniae. Kind of assay: Antibacterial activity against Streptococcus pneumoniae 3009 by macrodilution method. It is filed as functional.
For assay [36], the system named is Streptococcus pneumoniae. Kind of assay: Antibacterial activity against gatifloxacin resistance selected Streptococcus pneumoniae 37 with GyrA S81Y, GyrB E474K and ParC S79Y mutation after 14 passages by macrodilution method. It counts as functional.
In assay [37] the test system is Streptococcus pneumoniae. Nature of the assay: Antibacterial activity against gatifloxacin resistance selected Streptococcus pneumoniae 3009 after 14 passages by macrodilution method. It is filed as functional.
The test system of assay [38] is Streptococcus pneumoniae. Kind of assay: Antibacterial activity against Streptococcus pneumoniae 37 by macrodilution method. It counts as functional.
For assay [39], the system named is Streptococcus pneumoniae. Nature of the assay: Antibacterial activity against gatifloxacin resistance selected Streptococcus pneumoniae 1076 with ParC S79Y mutation after 20 passages by macrodilution method. It counts as functional.

Take `COc1c(N2C[C@@H]3CCCN[C@@H]3C2)c(F)cc2c(=O)c(C(=O)O)cn(C3CC3)c12` [MOXIFLOXACIN]: the MIC in assay [1] worked out at 1 µg/mL (≈ 2.49 µM); in assay [2], 2 µg/mL (≈ 4.98 µM); in assay [3] it was 8 µg/mL (≈ 19.9 µM); in assay [4] it was 1 µg/mL (≈ 2.49 µM); in [5] it was 1 µg/mL (≈ 2.49 µM); in [6], 1 µg/mL (≈ 2.49 µM). Besides, the MIC turned out to be 4 µg/mL (≈ 9.96 µM) in assay [7]; 4 µg/mL (≈ 9.96 µM) in assay [8]; 8 µg/mL (≈ 19.9 µM) in assay [9]; 2 µg/mL (≈ 4.98 µM) in [11]; 8 µg/mL (≈ 19.9 µM) in [12]; 16 µg/mL (≈ 39.9 µM) in assay [13]. Also, the “Post Antibiotic Effe” value in assay [10] came out at 1.5 h.

For `CC[C@H]1OC(=O)[C@H](C)[C@@H](O[C@H]2C[C@@](C)(OC)[C@@H](O)[C@H](C)O2)[C@H](C)[C@@H](O[C@@H]2O[C@H](C)C[C@H](N(C)C)[C@H]2O)[C@](C)(O)C[C@@H](C)CN(C)[C@H](C)[C@@H](O)[C@]1(C)O` [AZITHROMYCIN], the MIC is over 128 µg/mL in assay [14]; 4 µg/mL (≈ 5.34 µM) in assay [15]; over 128 µg/mL in assay [16]; 0.25 µg/mL (≈ 0.334 µM) in assay [17]; over 128 µg/mL in [18]; 4 µg/mL (≈ 5.34 µM) in [19]. Further, the MIC in [20] is over 64 µg/mL; in [21], over 64 µg/mL; in [22], 0.03 µg/mL (≈ 0.0401 µM); in assay [23], 0.5 µg/mL (≈ 0.668 µM); in [24], over 128 µg/mL; in assay [25], 0.03 µg/mL (≈ 0.0401 µM). In addition, the MIC was over 128 µg/mL in assay [26]; 0.016 µg/mL (≈ 0.0214 µM) in assay [27]; 8 µg/mL (≈ 10.7 µM) in assay [28]; 128 µg/mL (≈ 171 µM) in [29]; 8 µg/mL (≈ 10.7 µM) in [30]; over 128 µg/mL in assay [31]. For the same molecule, the MIC in assay [7] was 128 µg/mL (≈ 171 µM); in [32], 1 µg/mL (≈ 1.34 µM); in assay [33] it was 0.016 µg/mL (≈ 0.0214 µM); in [11], over 128 µg/mL; in assay [34] it was 16 µg/mL (≈ 21.4 µM); in [12], 4 µg/mL (≈ 5.34 µM). In assay [13], the MIC is over 128 µg/mL. For the same molecule, the “Post Antibiotic Effe” value in [10] was found to be 3.1 h.

On to `COc1c(N2CCNC(C)C2)c(F)cc2c(=O)c(C(=O)O)cn(C3CC3)c12` (stereo not given) [GATIFLOXACIN], for which the MIC in [35] was 1 µg/mL (≈ 2.66 µM); in [14] it was 4 µg/mL (≈ 10.7 µM); in assay [15] it was 8 µg/mL (≈ 21.3 µM); in assay [16] it was 4 µg/mL (≈ 10.7 µM); in assay [18], 8 µg/mL (≈ 21.3 µM); in assay [36], 16 µg/mL (≈ 42.6 µM). Moreover, the MIC in assay [37] was 16 µg/mL (≈ 42.6 µM); in assay [21] it was 8 µg/mL (≈ 21.3 µM); in [23], 0.25 µg/mL (≈ 0.666 µM); in [24], 8 µg/mL (≈ 21.3 µM); in assay [26], 2 µg/mL (≈ 5.33 µM); in [27], 1 µg/mL (≈ 2.66 µM). For the same molecule, the MIC in [28] stood at 0.25 µg/mL (≈ 0.666 µM); in [29] it was 0.25 µg/mL (≈ 0.666 µM); in assay [6], 2 µg/mL (≈ 5.33 µM); in assay [38] it was 1 µg/mL (≈ 2.66 µM); in assay [30] it was 0.5 µg/mL (≈ 1.33 µM); in [31] it was 8 µg/mL (≈ 21.3 µM). For the same molecule, the MIC amounted to 8 µg/mL (≈ 21.3 µM) in assay [7]; 0.25 µg/mL (≈ 0.666 µM) in assay [32]; 0.5 µg/mL (≈ 1.33 µM) in assay [11]; 0.5 µg/mL (≈ 1.33 µM) in [34]; 2 µg/mL (≈ 5.33 µM) in assay [12]; 16 µg/mL (≈ 42.6 µM) in assay [13]. Also, the MIC in [39] is 16 µg/mL (≈ 42.6 µM). Besides, in [10], the “Post Antibiotic Effe” value came to 1.7 h.
